Measurements: ChEMBL document CHEMBL1909046, “DrugMatrix in vitro pharmacology data”

Tests used:
Cytochrome P450 2D6 = Cytochrome P450 2D6 (Homo sapiens, UniProt P10635); details: bti-tn-5b1-4; note: in other assays of this panel Not Active means under 50% inhibition at 10 µM
[1] = biological target: Mitogen-activated protein kinase 14 (Homo sapiens, UniProt Q16539); parameters: species or system Escherichia coli;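 note: inhibition of p38alpha enzyme activity in a biochemical kinase assay, with myelin basic protein serving as substrate; in other assays of this panel Not Active means under 50% inhibition at 10 µM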
Sequence of Mitogen-activated protein kinase 14 (Q16539 whole entry): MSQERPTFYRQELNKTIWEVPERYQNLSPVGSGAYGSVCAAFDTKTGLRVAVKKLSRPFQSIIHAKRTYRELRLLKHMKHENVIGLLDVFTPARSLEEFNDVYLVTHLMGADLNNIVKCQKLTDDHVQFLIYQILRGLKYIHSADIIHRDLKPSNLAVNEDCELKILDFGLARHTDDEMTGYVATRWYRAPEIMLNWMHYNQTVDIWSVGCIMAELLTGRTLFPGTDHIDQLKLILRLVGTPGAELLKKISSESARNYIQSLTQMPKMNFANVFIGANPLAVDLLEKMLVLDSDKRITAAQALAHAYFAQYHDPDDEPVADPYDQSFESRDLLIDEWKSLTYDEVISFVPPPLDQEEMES

[2] = biological target: 5-hydroxytryptamine receptor 1B (Rattus norvegicus, UniProt P28564); assay type: cell membranes, Wistar, Cerebral cortex, Membrane; note: in other assays of this panel Not Active means under 50% inhibition at 10 µM
Sequence of 5-hydroxytryptamine receptor 1B (P28564 whole entry): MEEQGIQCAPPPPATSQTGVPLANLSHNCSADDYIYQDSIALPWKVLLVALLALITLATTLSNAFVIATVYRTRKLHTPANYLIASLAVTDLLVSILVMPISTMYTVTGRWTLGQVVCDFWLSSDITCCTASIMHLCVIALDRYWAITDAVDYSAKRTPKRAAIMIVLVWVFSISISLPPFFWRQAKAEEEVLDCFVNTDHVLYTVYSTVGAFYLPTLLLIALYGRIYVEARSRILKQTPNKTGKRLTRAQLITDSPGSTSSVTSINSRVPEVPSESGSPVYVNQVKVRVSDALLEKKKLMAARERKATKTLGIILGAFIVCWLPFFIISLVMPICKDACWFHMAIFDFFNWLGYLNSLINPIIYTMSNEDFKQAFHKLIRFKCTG

[3] = DRUGMATRIX: Tumor Necrosis Factor (TNF), Non-Selective radioligand binding (ligand: [125I] TNF-alpha); assay type: cell membranes, Membrane; details: u-937; Not Active = under 50% inhibition at 10 µM
[4] = DRUGMATRIX: Glutamate, NMDA, Phencyclidine radioligand binding (ligand: [3H] TCP); assay type: cell membranes, Rattus norvegicus, Wistar, Cerebral cortex, Membrane; details: Not Active = under 50% inhibition at 10 µM
Substance-P receptor = Substance-P receptor (Homo sapiens, UniProt P25103); assay type: cell membranes, Membrane; details: cho; note: in other assays of this panel Not Active means under 50% inhibition at 10 µM
Sequence of Substance-P receptor (P25103 whole entry): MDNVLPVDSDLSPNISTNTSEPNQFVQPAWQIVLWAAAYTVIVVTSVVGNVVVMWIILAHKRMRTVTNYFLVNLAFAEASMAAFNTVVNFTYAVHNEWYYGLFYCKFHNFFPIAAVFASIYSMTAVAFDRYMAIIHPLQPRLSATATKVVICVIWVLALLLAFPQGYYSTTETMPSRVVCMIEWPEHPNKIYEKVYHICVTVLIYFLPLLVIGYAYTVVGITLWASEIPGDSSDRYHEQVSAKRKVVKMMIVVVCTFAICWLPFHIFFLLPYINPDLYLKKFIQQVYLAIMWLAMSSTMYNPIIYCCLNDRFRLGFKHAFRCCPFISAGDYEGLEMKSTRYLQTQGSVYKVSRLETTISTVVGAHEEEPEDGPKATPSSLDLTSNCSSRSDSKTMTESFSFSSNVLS

[5] = biological target: T1, Polyunsaturated fatty acid lipoxygenase ALOX15 (Oryctolagus cuniculus, UniProt P12530); assay: biochemical; assay type: tissue-based, Reticulocytes
T1 sequence (P12530 whole entry): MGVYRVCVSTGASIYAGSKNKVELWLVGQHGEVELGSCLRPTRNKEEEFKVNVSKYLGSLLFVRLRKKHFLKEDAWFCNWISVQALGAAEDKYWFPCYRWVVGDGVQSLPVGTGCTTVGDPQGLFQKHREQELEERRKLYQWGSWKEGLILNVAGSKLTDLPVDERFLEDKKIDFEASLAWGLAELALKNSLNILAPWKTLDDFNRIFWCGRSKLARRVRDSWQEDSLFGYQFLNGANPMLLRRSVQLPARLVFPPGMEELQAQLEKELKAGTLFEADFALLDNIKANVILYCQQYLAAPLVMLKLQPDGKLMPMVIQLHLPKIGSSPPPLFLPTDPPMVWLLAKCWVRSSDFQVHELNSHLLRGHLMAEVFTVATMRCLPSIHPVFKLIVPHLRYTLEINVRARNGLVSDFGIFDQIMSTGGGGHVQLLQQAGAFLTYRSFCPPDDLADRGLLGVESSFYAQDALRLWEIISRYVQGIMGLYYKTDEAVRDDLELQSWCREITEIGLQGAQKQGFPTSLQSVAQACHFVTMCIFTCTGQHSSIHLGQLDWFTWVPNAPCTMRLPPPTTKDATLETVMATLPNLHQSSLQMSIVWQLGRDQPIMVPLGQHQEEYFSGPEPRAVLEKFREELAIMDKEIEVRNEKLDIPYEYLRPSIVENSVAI

Sequence of Cytochrome P450 2D6 (P10635 whole entry): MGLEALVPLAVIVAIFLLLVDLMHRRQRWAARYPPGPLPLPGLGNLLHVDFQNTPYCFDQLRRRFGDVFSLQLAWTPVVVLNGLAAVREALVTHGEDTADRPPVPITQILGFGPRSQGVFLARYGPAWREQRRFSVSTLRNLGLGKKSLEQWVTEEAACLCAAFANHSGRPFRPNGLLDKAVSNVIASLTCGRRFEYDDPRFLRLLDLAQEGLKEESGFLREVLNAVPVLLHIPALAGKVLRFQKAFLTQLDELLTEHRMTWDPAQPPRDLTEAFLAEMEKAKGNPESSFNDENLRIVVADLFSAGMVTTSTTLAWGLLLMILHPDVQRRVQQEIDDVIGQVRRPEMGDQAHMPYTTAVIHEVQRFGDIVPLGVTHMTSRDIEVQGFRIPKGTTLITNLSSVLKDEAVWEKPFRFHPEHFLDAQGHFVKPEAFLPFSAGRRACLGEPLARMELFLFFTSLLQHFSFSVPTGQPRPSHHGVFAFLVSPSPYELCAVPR

| Structure (SMILES) | IC50 (Cytochrome P450 2D6) | Ki (Cytochrome P450 2D6) | IC50 [1] | IC50 [2] | IC50 [3] | Ki [3] | IC50 [4] | Ki [4] | IC50 (Substance-P receptor) | IC50 ([5]; reticulocytes) | IC50 ([5]; read-out: IC50) [nM] | IC50 ([2]; read-out: IC50) [nM] | Ki ([2]; read-out: Ki) [nM] |
| --- | --- | --- | --- | --- | --- | --- | --- | --- | --- | --- | --- | --- | --- |
| O=C(/C=C/c1ccc(O)c(O)c1)OCCc1ccccc1 [CAFFEIC ACID PHENETHYL ESTER] | Not Active | Not Active | Not Active | Not Active | Not Active | Not Active | Not Active | Not Active | Not Active | Not Active | – | – | – |
| COc1cc(CNC(=O)CCCC/C=C/C(C)C)ccc1O [CAPSAICIN] | Not Active | Not Active | Not Active | Not Active | Not Active | Not Active | Not Active | Not Active | Not Active | Not Active | – | – | – |
| NC(=O)N1c2ccccc2C=Cc2ccccc21 [CARBAMAZEPINE] | Not Active | Not Active | Not Active | Not Active | Not Active | Not Active | Not Active | Not Active | Not Active | Not Active | – | – | – |
| CCOC(=O)n1ccn(C)c1=S [CARBIMAZOLE] | Not Active | Not Active | Not Active | Not Active | Not Active | Not Active | Not Active | Not Active | Not Active | Not Active | – | – | – |
| Oc1ccccc1O [CATECHOL] | Not Active | Not Active | Not Active | Not Active | Not Active | Not Active | Not Active | Not Active | Not Active | – | 868 | – | – |
| CO[C@@]1(NC(=O)CSCC#N)C(=O)N2C(C(=O)O)=C(CSc3nnnn3C)CS[C@@H]21 [CEFMETAZOLE] | Not Active | Not Active | Not Active | Not Active | Not Active | Not Active | Not Active | Not Active | Not Active | Not Active | – | – | – |
| CN(C(=O)CCCOc1ccc2[nH]c(=O)ccc2c1)C1CCCCC1 [CILOSTAMIDE] | Not Active | Not Active | Not Active | Not Active | Not Active | Not Active | Not Active | Not Active | Not Active | Not Active | – | – | – |
| CC(C)(Oc1ccc(C2CC2(Cl)Cl)cc1)C(=O)O (stereo unspecified) [CIPROFIBRATE] | Not Active | Not Active | Not Active | Not Active | Not Active | Not Active | Not Active | Not Active | Not Active | Not Active | – | – | – |
| Nc1nc(Cl)nc2c1ncn2[C@H]1C[C@H](O)[C@@H](CO)O1 [CLADRIBINE] | Not Active | Not Active | Not Active | Not Active | Not Active | Not Active | Not Active | Not Active | Not Active | Not Active | – | – | – |
| CC[C@H]1OC(=O)[C@H](C)[C@@H](O[C@H]2C[C@@](C)(OC)[C@@H](O)[C@H](C)O2)[C@H](C)[C@@H](O[C@@H]2O[C@H](C)C[C@H](N(C)C)[C@H]2O)[C@](C)(OC)C[C@@H](C)C(=O)[C@H](C)[C@@H](O)[C@]1(C)O [CLARITHROMYCIN] | Not Active | Not Active | Not Active | Not Active | Not Active | Not Active | Not Active | Not Active | Not Active | Not Active | – | – | – |
| O=C(O)c1cc(=O)c2c(OCC(O)COc3cccc4oc(C(=O)O)cc(=O)c34)cccc2o1 [CROMOLYN] | Not Active | Not Active | Not Active | Not Active | Not Active | Not Active | Not Active | Not Active | Not Active | Not Active | – | – | – |
| O=P1(N(CCCl)CCCl)NCCCO1 (stereo unspecified) [CYCLOPHOSPHAMIDE ANHYDROUS] | Not Active | Not Active | Not Active | Not Active | Not Active | Not Active | Not Active | Not Active | Not Active | Not Active | – | – | – |
| CC(=O)O[C@]1(C(C)=O)CC[C@H]2[C@@H]3C=C(Cl)C4=CC(=O)[C@@H]5C[C@@H]5[C@]4(C)[C@H]3CC[C@@]21C [CYPROTERONE ACETATE] | Not Active | Not Active | Not Active | Not Active | Not Active | Not Active | Not Active | Not Active | Not Active | Not Active | – | – | – |
| Nc1nc(N)nc(NC2CC2)n1 [CYROMAZINE] | Not Active | Not Active | Not Active | Not Active | Not Active | Not Active | Not Active | Not Active | Not Active | Not Active | – | – | – |
| C#C[C@]1(O)CC[C@H]2[C@@H]3CCC4=Cc5oncc5C[C@]4(C)[C@H]3CC[C@@]21C [DANAZOL] | Not Active | Not Active | Not Active | Not Active | Not Active | Not Active | Not Active | Not Active | Not Active | Not Active | – | – | – |
| CCN[C@@H](C)Cc1cccc(C(F)(F)F)c1 [DEXFENFLURAMINE] | Not Active | Not Active | Not Active | Not Active | Not Active | Not Active | Not Active | Not Active | Not Active | Not Active | – | – | – |
| C[C@H](C(=O)O)c1cccc(C(=O)c2ccccc2)c1 [DEXKETOPROFEN] | Not Active | Not Active | Not Active | Not Active | Not Active | Not Active | Not Active | Not Active | Not Active | Not Active | – | – | – |
| CN1C[C@H](C(=O)N[C@]2(C)O[C@@]3(O)[C@@H]4CCCN4C(=O)[C@H](Cc4ccccc4)N3C2=O)C[C@@H]2c3cccc4[nH]cc(c34)C[C@H]21 [DIHYDROERGOTAMINE] | Not Active | Not Active | Not Active | – | Not Active | Not Active | Not Active | Not Active | Not Active | Not Active | – | 0.846 | 0.384 |
| Cc1c(N(C)CS(=O)(=O)[O-])c(=O)n(-c2ccccc2)n1C.[Na+] [DIPYRONE SODIUM] | Not Active | Not Active | Not Active | Not Active | Not Active | Not Active | Not Active | Not Active | Not Active | Not Active | – | – | – |
| CC(CCc1ccc(O)cc1)NCCc1ccc(O)c(O)c1 (stereo unspecified) [DOBUTAMINE] | Not Active | Not Active | Not Active | Not Active | Not Active | Not Active | Not Active | Not Active | Not Active | – | 599 | – | – |
| CCn1cc(C(=O)O)c(=O)c2cc(F)c(N3CCNCC3)nc21 [ENOXACIN] | Not Active | Not Active | Not Active | Not Active | Not Active | Not Active | Not Active | Not Active | Not Active | Not Active | – | – | – |
| CCC(=O)O[C@H]1[C@H](O[C@@H]2[C@@H](C)[C@H](O[C@H]3C[C@@](C)(OC)[C@@H](O)[C@H](C)O3)[C@@H](C)C(=O)O[C@H](CC)[C@@](C)(O)[C@H](O)[C@@H](C)C(=O)[C@H](C)C[C@@]2(C)O)O[C@H](C)C[C@@H]1N(C)C [ERYTHROMYCIN PROPIONATE] | Not Active | Not Active | Not Active | Not Active | Not Active | Not Active | Not Active | Not Active | Not Active | Not Active | – | – | – |
| C=C(CC)C(=O)c1ccc(OCC(=O)O)c(Cl)c1Cl [ETHACRYNIC ACID] | Not Active | Not Active | Not Active | Not Active | Not Active | Not Active | Not Active | Not Active | Not Active | Not Active | – | – | – |
| C#C[C@]1(O)CC[C@H]2[C@@H]3CCc4cc(O)ccc4[C@H]3CC[C@@]21C [ETHINYL ESTRADIOL] | Not Active | Not Active | Not Active | Not Active | Not Active | Not Active | Not Active | Not Active | Not Active | – | 5680 | – | – |
